Laboratory results as given in PubChem BioAssay AID1259411 (Chemical Carcinogenesis Research Information System (CCRIS), 2018).
Active and inactive are the calls of the source. No rule for the calls is given here.

Tested on: rodent carcinogenicity bioassays, tumor incidence
Assay: CCRIS carcinogenicity studies
In short: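 Archive of carcinogenicity, mutagenicity, tumor promotion and tumor inhibition results drawn from journals, NCI reports and other sources, expert-reviewed; covers 1985-2011 and is no longer updated.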

Nc1c(Cl)c(Cl)nc(C(=O)O)c1Cl
carcinogen call (Species: MOUSE, Strain/Sex: B6C3F1/FEMALE, Route: ORAL, Dose: 0, 2531, 5062 PPM IN DIET FOR 80 WK (STUDY DURATION: 90 WK), Dose: 0, 2531, 5062 PPM IN DIET FOR 80 WK (STUDY DURATION: 90 WK)): inactive; negative | carcinogen call (Species: MOUSE, Strain/Sex: B6C3F1/MALE, Route: ORAL, Dose: 0, 2531, 5062 PPM IN DIET FOR 80 WK (STUDY DURATION: 90 WK), Dose: 0, 2531, 5062 PPM IN DIET FOR 80 WK (STUDY DURATION: 90 WK)): inactive; negative | carcinogen call (Species: RAT, Strain/Sex: F344/FEMALE, Route: ORAL, Dose: 0, 20, 60, 200 MG/KG/D OF TECHNICAL GRADE PICLORAM IN FEED FOR 2 YR (STUDY DURATION: 2 YR), Dose: 0, 20, 60, 200 MG/KG/D OF TECHNICAL GRADE PICLORAM IN FEED FOR 2 YR (STUDY DURATION: 2 YR)): inactive; negative | carcinogen call (Species: RAT, Strain/Sex: F344/MALE, Route: ORAL, Dose: 0, 20, 60, 200 MG/KG/D OF TECHNICAL GRADE PICLORAM IN FEED FOR 2 YR (STUDY DURATION: 2 YR), Dose: 0, 20, 60, 200 MG/KG/D OF TECHNICAL GRADE PICLORAM IN FEED FOR 2 YR (STUDY DURATION: 2 YR)): inactive; negative | carcinogen call (Species: RAT, Strain/Sex: OSBORNE-MENDEL/FEMALE, Route: ORAL, Dose: 0, 7437, 14875 PPM IN DIET FOR 80 WK (STUDY DURATION: 113 WK), Dose: 0, 7437, 14875 PPM IN DIET FOR 80 WK (STUDY DURATION: 113 WK), Tumor Site: Type of Lesion: LIVER: NEOPLASTIC NODULE): equivocal | carcinogen call (Species: RAT, Strain/Sex: OSBORNE-MENDEL/MALE, Route: ORAL, Dose: 0, 7437, 14875 PPM IN DIET FOR 80 WK (STUDY DURATION: 113 WK), Dose: 0, 7437, 14875 PPM IN DIET FOR 80 WK (STUDY DURATION: 113 WK)): inactive; negative

O=C(O)COc1ccc(Cl)cc1Cl
carcinogen call (Species: MOUSE, Strain/Sex: B6C3F1/FEMALE, Route: ORAL, Dose: 0, 5, 150, 300 MG/KG BW DAILY FOR 2 YR (STUDY DURATION: 2 YR), Dose: 0, 5, 150, 300 MG/KG BW DAILY FOR 2 YR (STUDY DURATION: 2 YR)): inactive; negative | carcinogen call (Species: MOUSE, Strain/Sex: B6C3F1/MALE, Route: ORAL, Dose: 0, 5, 62.5, 125 MG/KG BW DAILY FOR 2 YR (STUDY DURATION: 2 YR), Dose: 0, 5, 62.5, 125 MG/KG BW DAILY FOR 2 YR (STUDY DURATION: 2 YR)): inactive; negative | carcinogen call (Species: RAT, Strain/Sex: F344/FEMALE, Route: ORAL, Dose: 0, 5, 75, 150 MG/KG BW DAILY FOR 2 YR (STUDY DURATION: 2 YR), Dose: 0, 5, 75, 150 MG/KG BW DAILY FOR 2 YR (STUDY DURATION: 2 YR)): inactive; negative | carcinogen call (Species: RAT, Strain/Sex: F344/MALE, Route: ORAL, Dose: 0, 5, 75, 150 MG/KG BW DAILY FOR 2 YR (STUDY DURATION: 2 YR), Dose: 0, 5, 75, 150 MG/KG BW DAILY FOR 2 YR (STUDY DURATION: 2 YR)): inactive; negative

CCOP(=S)(OCC)SCCSCC
carcinogen call (Species: Mouse, Strain/Sex: CD/Female (60/Group with 10 used as replacements), Route: Oral, Dose: 0, 1, 4, 16 ppm 98.2% disulfoton in diet for 99 wks, study duration 99 wks, Dose: 0, 1, 4, 16 ppm 98.2% disulfoton in diet for 99 wks, study duration 99 wks): inactive; negative | carcinogen call (Species: Mouse, Strain/Sex: CD/Male (60/Group with 10 used as replacements), Route: Oral, Dose: 0, 1, 4, 16 ppm 98.2% disulfoton in diet for 99 wks, study duration 99 wks, Dose: 0, 1, 4, 16 ppm 98.2% disulfoton in diet for 99 wks, study duration 99 wks): inactive; negative | carcinogen call (Species: Rat, Strain/Sex: F344/Female (50/Group), Route: Oral, Dose: 0, 1, 4, 16 ppm 97.6% disulfoton in diet for 105 wks, study duration 105 wks, Dose: 0, 1, 4, 16 ppm 97.6% disulfoton in diet for 105 wks, study duration 105 wks): inactive; negative | carcinogen call (Species: Rat, Strain/Sex: F344/Male (50/Group), Route: Oral, Dose: 0, 1, 4, 16 ppm 97.6% disulfoton in diet for 105 wks, study duration 105 wks, Dose: 0, 1, 4, 16 ppm 97.6% disulfoton in diet for 105 wks, study duration 105 wks): inactive; negative

CCOC(=O)NCCOc1ccc(Oc2ccccc2)cc1
carcinogen call (Species: Mouse, Strain/Sex: CD-1/Female (50/Group), Route: Oral, Dose: 0, 30, 110, 420 ppm of 96.6% fenoxycarb in diet for 80 wk, study duration 80 wk, Dose: 0, 30, 110, 420 ppm of 96.6% fenoxycarb in diet for 80 wk, study duration 80 wk): inactive; negative | carcinogen call (Species: Mouse, Strain/Sex: CD-1/Male (50/Group), Route: Oral, Dose: 0, 30, 110, 420 ppm of 96.6% fenoxycarb in diet for 80 wk, study duration 80 wk, Dose: 0, 30, 110, 420 ppm of 96.6% fenoxycarb in diet for 80 wk, study duration 80 wk, Tumor Site: Type of Lesion: Lung: alveolar/bronchial adenomas and carcinomas, significant at 420 ppm only): active; positive | carcinogen call (Species: Rat, Strain/Sex: Crl:CD(SD)BR/Female (50/Group), Route: Oral, Dose: 0, 200, 600, 1800 ppm of 96.6% fenoxycarb in diet for 104 wk, study duration 104 wk, Dose: 0, 200, 600, 1800 ppm of 96.6% fenoxycarb in diet for 104 wk, study duration 104 wk): inactive; negative | carcinogen call (Species: Rat, Strain/Sex: Crl:CD(SD)BR/Male (50/Group), Route: Oral, Dose: 0, 200, 600, 1800 ppm of 96.6% fenoxycarb in diet for 104 wk, study duration 104 wk, Dose: 0, 200, 600, 1800 ppm of 96.6% fenoxycarb in diet for 104 wk, study duration 104 wk): inactive; negative

O=C1c2cccc(O)c2C(=O)c2c(O)cccc21
carcinogen call (Species: MOUSE, Strain/Sex: C3H/HEN/MALE, Route: ORAL, Dose: 0, 0.2% IN DIET FOR DURATION OF STUDY (STUDY DURATION: 540 D), Tumor Site: Type of Lesion: LIVER: HEPATOCELLULAR CARCINOMA): active; positive | carcinogen call (Species: RAT, Strain/Sex: ACI/MALE, Route: ORAL, Dose: 0, 1% IN DIET FOR DURATION OF STUDY (STUDY DURATION: 16 MO), Tumor Site: Type of Lesion: INTESTINE: ADENOMA OR CARCINOMA): active; positive

O=C(O)c1cc2ccccc2c(N=Nc2ccc3ccccc3c2S(=O)(=O)O)c1O
carcinogen call (Species: MOUSE, Strain/Sex: SWISS-WEBSTER/FEMALE, Route: DERMAL, Dose: 0, 1% IN 0.1 ML 0.1% SODIUM LAURYL SULFATE 1/WK FOR 18 MO (STUDY DURATION: 18 MO)): inactive; negative | carcinogen call (Species: MOUSE, Strain/Sex: SWISS-WEBSTER/MALE, Route: DERMAL, Dose: 0, 1% IN 0.1 ML 0.1% SODIUM LAURYL SULFATE 1/WK FOR 18 MO (STUDY DURATION: 18 MO)): inactive; negative

Oc1ccc(-c2c(Cl)cc(Cl)cc2Cl)cc1
carcinogen call (Species: MOUSE, Strain/Sex: BALB/CCRGL/FEMALE, Route: SUBCUTANEOUS, Dose: 20 UG DAILY FOR 5 D BEGINNING 16 HR AFTER BIRTH (STUDY DURATION: 20 MO), Tumor Site: Type of Lesion: MAMMARY GLAND: CARCINOMA (5/33), CERVICOVAGINAL TRACT: CARCINOMA (2/33), LUNG TUMORS (3/33), Tumor Site: Type of Lesion: MAMMARY GLAND: CARCINOMA (5/33), CERVICOVAGINAL TRACT: CARCINOMA (2/33), LUNG TUMORS (3/33)): active; positive; (statistically significant for total number of tumors) | carcinogen call (Species: MOUSE, Strain/Sex: BALB/CCRGL/FEMALE, Route: SUBCUTANEOUS, Dose: 200 UG DAILY FOR 5 D BEGINNING 16 HR AFTER BIRTH (STUDY DURATION: 20 MO), Tumor Site: Type of Lesion: CERVICOVAGINAL TRACT: CARCINOMA (10/22)): active; positive
